Structures are written as SMILES.

This is an account of results in patent US6080762A, “Pulmonary and nasal delivery of raloxifene” (priority 1999, dated 2000).

The conditions of series [1]: cynomolgus monkey, in vivo.
The conditions of series [2]: cynomolgus monkey, in vivo. The source holds these as a separate data set.
Procedure: (§1) Six adult cynomolgus monkeys (three males and three females) were used for this study. Males weighed from 5.3 kg to 5.5 kg at the start of the live phase. Females weighed from 3.8 kg to 4.9 kg at the start of the live phase. Each animal was uniquely identified with a number tattooed on the inner thigh.
(§2) The animals were housed individually in stainless steel cages. Rooms were thermostatically set to maintain a temperature of 72° F. and maintain an actual temperature within 8° F. from that set point. The environmental control system is designed to maintain a relative humidity of 20% and a maximum of 80%. Light was on a 12 hour cycle, with lights on between 0600 and 1800. […] On test days, the animals were given primate chow only after the completion of the inhalation exposures. Water was available ad libitum except during exposure times.
(§3) Prior to beginning the live phase of the study, the monkeys were conditioned, over an approximately 3 month period, to be caught, handled, and placed in a restraint chair using the pole-and-collar method. Foods like peanuts, marshmallows, and a variety of dried and fresh fruits were used as training rewards. The time that the monkeys were left in the chair was increased gradually up to 8 hours. By the end of the training period, all the monkeys could be caught quickly, placed into the restraint chair easily, and would allow limb manipulation, including having blood drawn, while in the chair.
(§4) Each monkey was studied once per week for 5 weeks. Target concentrations of raloxifene activity were 0, 3, 10, 0, and 30 mg/m^3 for Weeks 1 through 5 respectively. The activity was determined by correcting the amount of raloxifene collected by the potency of the lot used. Each exposure was for 8 hours, divided into 4 hour segments with 15 minutes in between. During the 15 minute period between the 4 hour exposures, the monkeys were offered juice to drink and apple pieces to eat. The conditioning period described above had used this method to keep the animals from becoming agitated due to hunger or thirst. A 15 minute break in the exposures was not expected to affect the blood levels of raloxifene.
(§5) The monkeys were placed into the restraint prior to each exposure. Two sheets of latex (0.030 in. thick) were placed around the animal's necks to form a seal. A 7-L head dome was placed over the animal's heads as described in J. Appl. […] Airflow of 15 L/min was maintained through the head dome via a calibrated transvector on the exhaust port. The raloxifene was aerosolized using a Wright Dust Feed II. […] The aerosol then entered the head-dome for the monkey to breath.
(§6) Each day, before the monkeys were exposed, the exposure system was set up and a gravimetric sample was taken to determine the raloxifene concentration. The monkey was then placed in the chair and the aerosol was generated using the same generator settings. After the exposure to the monkey, it was removed from the chair, the system re-assembled, and another gravimetric sample taken. The concentrations derived from the 2 gravimetric samples were averaged to obtain the raloxifene concentration for that exposure. Gravimetric concentrations were determined by collecting the aerosol directly from the head-dome onto a 25 mm Gelman type A/E glass fiber filter.
The nature of series [3]: Pharmacokinetics of inhaled (pulmonary/nasal) aerosolized raloxifene in cynomolgus monkeys (Working Example 1).
Procedure: as §1, §2, §3, §4, §5, §6

Consider `O=C(c1ccc(OCCN2CCCCC2)cc1)c1c(-c2ccc(O)cc2)sc2cc(O)ccc12` [raloxifene], for which the breathing frequency result in series [1] is reported as “no significant changes”. Moreover, the tidal volume entry in series [1] is recorded as “no significant changes”. The “blood levels of raloxifene (level and duration)” value in series [2] is recorded as “relatively higher blood levels of raloxifene which lasted for several hours”. Further, in series [2], the “initial levels of unmetabolized raloxifene absorbed into the blood” value was “higher, relative to oral delivery”. In addition, the “Cmax (Mean Ralox.)” value in series [3] (8 h inhalation, exposure conc. 3.3 mg Ralox./m^3 of air, plasma) was found to be 7 ng/mL; in series [3] (8 h inhalation, exposure conc. 9.7 mg Ralox./m^3 of air, plasma), 17 ng/mL; in series [3] (8 h inhalation, exposure conc. 26.9 mg Ralox./m^3 of air, plasma), 47 ng/mL. For the same molecule, the “AUC ratio of raloxifene/total raloxifene” value is reported as 0.56 in series [3] (inhalation, 10 mg/m^3 dose group) and 0.82 in series [3] (inhalation, 30 mg/m^3 dose group). Moreover, in series [3] (inhalation, males and females), the “sex differences in raloxifene, total raloxifene, Cmax, or AUC values” is “No appreciable sex differences”. Besides, the “blood levels by pulmonary/nasal delivery relative to oral administration” value in series [3] (oral administration at an equivalent dose as comparison) was “considerably higher than those obtained following oral administration”. Moreover, the bioavailability entry in series [3] (pulmonary/nasal delivery) is given as “unexpected high level of bioavailability”. For the same molecule, in series [3] (total raloxifene, 8 h inhalation, exposure conc. 26.9 mg Ralox./m^3 of air, plasma), the “Cmax (Mean Tot. Ralox.)” value was 84 ng/mL.
